{"source": "patent US8452543B2", "about": "“High throughput screening for antimicrobial dosing regimens” (priority 2005, dated 2013)", "key": {"in vivo": {"assay": "in vivo", "experimental": "In vivo meropenem concentrations in mouse serum were determined by a microbioassay utilizing Escherichia coli ATCC 25922 as the reference organism. The meropenem standard solutions ranged from 0.5 to 128 μg/ml in mouse serum.\nFemale Swiss-Webster mice (22-26 g) were used; all mice were cared for in accordance to the highest humane and ethical standards, as approved by the Institutional Animal Care and Use Committee (IACUC). The animals were housed in isolation boxes to decrease the risk of infection from extraneous pathogens. They received food and water ad libitum. The animals were rendered neutropenic by 2 intra-peritoneal injections of cyclophosphamide (Sigma, St. Louis, Mo.) 150 mg/kg on day −4 and 100 mg/kg on day −1 prior to infection; previous studies have shown that this regimen would produce neutropenia for 5 days (13, 16). Transient nephrotoxicity was induced by 1 intra-peritoneal injection of uranyl nitrate (5 mg/kg on day −2), which has been previously shown to produce a significant stable reduction in renal function for at least 7 days (21).\nThe bacterial inoculum was prepared and inoculated into the animals as outlined below. […] Six mice were sacrificed by CO2 asphyxiation at 0.5, 1, 1.5, 2, and 3 hours after injection. Blood samples were collected via cardiac puncture. The blood was allowed to clot on ice and centrifuged; meropenem concentrations in these serum samples were assayed by a validated method as described below. The serum concentration profiles of all the animals were analyzed by linear regression of the logarithmic-transformed data."}, "P. aeruginosa ATCC 27853": {"test_system": "P. aeruginosa ATCC 27853", "assay": "Time-kill studies and growth dynamics model, meropenem", "type": "cell-based, Pseudomonas aeruginosa", "details": "for EC50: read-out: Ck50 (the source's name)", "experimental": "Time-kill studies were conducted with different and escalating meropenem concentrations. […] An overnight culture of the isolate was diluted 30-fold with pre-warmed Ca-MHB and incubated further at 35 8 C until reaching late log phase growth. The bacterial suspension was diluted with Ca-MHB accordingly based on absorbance at 630 nm; 15 mL of the suspension was transferred to 50 mL sterile conical flasks each containing 1 mL of an antimicrobial agent solution at 16 the target concentration. The final concentration of the bacterial suspension in each flask was 1×10^8 cfu/mL. The high inoculum used was to simulate the bacterial load in severe infection, and to allow resistant sub-population(s) to be present at baseline. The experiment was conducted for 24 h in a shaker water bath set at 35 8 C. Serial samples in duplicate were obtained from each flask over 24 h, at 0 (baseline), 2, 4, 8, 12, and 24 h, to characterize the effect of various meropenem concentrations on the total bacterial population. Prior to culturing the bacteria quantitatively, the bacterial samples (0.5 mL) were centrifuged at 10000 g for 15 min, and reconstituted with sterile normal saline to their original volumes in order to minimize drug carry-over effect. Total bacterial populations were quantified by spiral plating 10 serial dilutions of the samples ([…]) onto MHA plates. The media plates were incubated in a humidified incubator (35 8 C) for 18-24 h, and the bacterial density from each sample was determined by CASBA-4 colony scanner/software (Spiral Biotech, Bethesda, Md., USA). The theoretical lower limit of detection was 400 cfu/mL.\nThe time courses of bacterial burden under different drug exposures is described using a mathematical model. The population balance for a bacterial population is determined by: Rate of change of bacterial population over time=intrinsic growth rate−kill rate by antimicrobial agent or\nIn contrast to the conventional approach in which the final observed effects are modelled, information over time was utilized to develop a dynamic model system that would capture bacterial growth/killing rates. The starting point was a mathematical model describing the time course of bacterial burden [biological response, N(t)] under the influence of various antimicrobial agent concentrations C(t). The rate of change of bacteria over time was expressed as the difference between the intrinsic bacterial growth rate and the kill rate provided by the antimicrobial agent (Eq. 35). Based on previous studies, a linear bacterial growth rate was adopted. Additional model parameters were used to account for other physiological phenomena such as contact inhibition (using a maximum population size) and non-linear (sigmoidal) kill rate to account for target site saturation. Regrowth was attributed to adaptation, which was explicitly modelled as increase in the concentration necessary to achieve 50% maximal kill rate (C50k), using a saturable function of antimicrobial agent selective pressure (both meropenem concentration and time) (Eq. 36).\nThe experimental data derived from the time-kill studies were analysed by population analysis, using the non-parametric adaptive grid (NPAG) program (28). The killing profile observed with each meropenem concentration was input as a subject in the population analysis. The search algorithm sought the combination of parameter values and their distributions that would have the highest likelihood of explaining the observations made with all the meropenem concentrations in a single step (as opposed to fixing some parameter estimates sequentially while estimating the others). The explicit assumption was made that overall observation variance was proportional to variance of the measurement, i.e. quantitative cultures. The proportionality constant g was optimized with each cycle of the analysis."}, "[1]": {"details": "female, Swiss-Webster, mouse, in vivo, 400 mg/kg"}, "[2]": {"details": "Mean of the parameter estimates"}}, "note": "Like-named read-outs stand apart in the source and are kept apart here.", "data": [{"smiles": "C[C@@H](O)[C@H]1C(=O)N2C(C(=O)O)=C(S[C@@H]3CN[C@H](C(=O)N(C)C)C3)[C@H](C)[C@H]12", "note": "[meropenem]", "values": [{"measurement": "% T>MIC", "setting": "in vivo; 400 mg/kg, OprD− mutant", "value": 26, "unit": "%"}, {"measurement": "% T>MIC", "setting": "in vivo; 400 mg/kg, wild-type isolate", "value": 33, "unit": "%"}, {"measurement": "Cmax", "setting": "in vivo; [1]", "value": 354, "unit": "µg/mL"}, {"measurement": "half-life", "setting": "in vivo; [1]", "value": 19, "unit": "min"}, {"measurement": "serum concentration", "setting": "in vivo; lower doses (50 mg/kg and 100 mg/kg)", "value": "did not result a detectable serum meropenem concentration beyond 1 hour"}, {"measurement": "regrowth", "setting": "P. aeruginosa ATCC 27853; 0.25 MIC and 1 MIC, between 12 and 24 h", "value": "Regrowth was observed"}, {"measurement": "Kg", "setting": "P. aeruginosa ATCC 27853; [2]", "value": 4.71, "unit": "h − 1"}, {"measurement": "Kg", "setting": "P. aeruginosa ATCC 27853; meropenem Concn 0.25 mg/L", "value": 9.60, "unit": "h − 1"}, {"measurement": "Kg", "setting": "P. aeruginosa ATCC 27853; meropenem Concn 1 mg/L", "value": 4.08, "unit": "h − 1"}, {"measurement": "Kg", "setting": "P. aeruginosa ATCC 27853; meropenem Concn 4 mg/L", "value": 3.12, "unit": "h − 1"}, {"measurement": "Kg", "setting": "P. aeruginosa ATCC 27853; meropenem Concn 16 mg/L", "value": 3.41, "unit": "h − 1"}, {"measurement": "Kg", "setting": "P. aeruginosa ATCC 27853; meropenem Concn 64 mg/L", "value": 3.95, "unit": "h − 1"}, {"measurement": "H", "setting": "P. aeruginosa ATCC 27853; [2]", "value": 2.83}, {"measurement": "β", "setting": "P. aeruginosa ATCC 27853; [2]", "value": 5.85}, {"measurement": "τ", "setting": "P. aeruginosa ATCC 27853; [2]", "value": 158, "unit": "µL/min/mg"}, {"measurement": "MIC", "setting": "P. aeruginosa ATCC 27853; Pseudomonas aeruginosa, ATCC27853, 24 h, validation time-kill, meropenem at 2 MIC, read-out: MIC of the entire bacterial population at 24 h", "value": "> 1", "unit": "µg/mL"}, {"measurement": "EC50", "setting": "P. aeruginosa ATCC 27853; Pseudomonas aeruginosa, ATCC27853, Mean of the parameter estimates", "value": 2.29, "unit": "µg/mL"}, {"measurement": "EC50", "setting": "P. aeruginosa ATCC 27853; Pseudomonas aeruginosa, ATCC27853, meropenem Concn 0.25 mg/L", "value": 0.44, "unit": "µg/mL"}, {"measurement": "EC50", "setting": "P. aeruginosa ATCC 27853; Pseudomonas aeruginosa, ATCC27853, meropenem Concn 1 mg/L", "value": 3.53, "unit": "µg/mL"}, {"measurement": "EC50", "setting": "P. aeruginosa ATCC 27853; Pseudomonas aeruginosa, ATCC27853, meropenem Concn 4 mg/L", "value": 0.74, "unit": "µg/mL"}, {"measurement": "EC50", "setting": "P. aeruginosa ATCC 27853; Pseudomonas aeruginosa, ATCC27853, meropenem Concn 16 mg/L", "value": 2.61, "unit": "µg/mL"}, {"measurement": "EC50", "setting": "P. aeruginosa ATCC 27853; Pseudomonas aeruginosa, ATCC27853, meropenem Concn 64 mg/L", "value": 2.9, "unit": "µg/mL"}, {"measurement": "concentration necessary to attain 80% maximal kill rate (C80k)", "setting": "P. aeruginosa ATCC 27853; at baseline", "value": 3.8, "unit": "mg/L"}, {"measurement": "concentration necessary to attain 90% maximal kill rate (C90k)", "setting": "P. aeruginosa ATCC 27853; at baseline", "value": 5.0, "unit": "mg/L"}, {"measurement": "H", "setting": "P. aeruginosa ATCC 27853; meropenem Concn 0.25 mg/L", "value": 3.81}, {"measurement": "β", "setting": "P. aeruginosa ATCC 27853; meropenem Concn 0.25 mg/L", "value": 3.79}, {"measurement": "τ", "setting": "P. aeruginosa ATCC 27853; meropenem Concn 0.25 mg/L", "value": 350, "unit": "µL/min/mg"}, {"measurement": "H", "setting": "P. aeruginosa ATCC 27853; meropenem Concn 1 mg/L", "value": 1.48}, {"measurement": "β", "setting": "P. aeruginosa ATCC 27853; meropenem Concn 1 mg/L", "value": 6.64}, {"measurement": "τ", "setting": "P. aeruginosa ATCC 27853; meropenem Concn 1 mg/L", "value": 183, "unit": "µL/min/mg"}, {"measurement": "H", "setting": "P. aeruginosa ATCC 27853; meropenem Concn 4 mg/L", "value": 1.67}, {"measurement": "β", "setting": "P. aeruginosa ATCC 27853; meropenem Concn 4 mg/L", "value": 4.48}, {"measurement": "τ", "setting": "P. aeruginosa ATCC 27853; meropenem Concn 4 mg/L", "value": 115, "unit": "µL/min/mg"}, {"measurement": "H", "setting": "P. aeruginosa ATCC 27853; meropenem Concn 16 mg/L", "value": 7.74}, {"measurement": "β", "setting": "P. aeruginosa ATCC 27853; meropenem Concn 16 mg/L", "value": 4.85}, {"measurement": "τ", "setting": "P. aeruginosa ATCC 27853; meropenem Concn 16 mg/L", "value": 85, "unit": "µL/min/mg"}, {"measurement": "H", "setting": "P. aeruginosa ATCC 27853; meropenem Concn 64 mg/L", "value": 0.79}, {"measurement": "β", "setting": "P. aeruginosa ATCC 27853; meropenem Concn 64 mg/L", "value": 8.70}, {"measurement": "τ", "setting": "P. aeruginosa ATCC 27853; meropenem Concn 64 mg/L", "value": 23.3, "unit": "µL/min/mg"}, {"measurement": "drop in bacterial burden at 24 h", "setting": "P. aeruginosa ATCC 27853; meropenem concentrations 4 MIC (4 mg/L)", "value": "> 2", "unit": "log"}, {"measurement": "concentration at which initial killing appeared maximized", "setting": "P. aeruginosa ATCC 27853; time-kill", "value": 4, "unit": "MIC"}, {"measurement": "killing profile", "setting": "P. aeruginosa ATCC 27853; time-kill", "value": "partially concentration-dependent"}, {"measurement": "regrowth", "setting": "P. aeruginosa ATCC 27853; validation time-kill, meropenem at 2 MIC", "value": "regrowth"}, {"measurement": "regrowth", "setting": "P. aeruginosa ATCC 27853; validation time-kill, meropenem at 32 MIC", "value": "no regrowth was observed"}]}]}
